Reference: PMC12655351, “Synthesis and Anticancer Activity Evaluation of New 5-((5-Nitrofuran-2-yl)allylidene)-2-thioxo-4-thiazolidinones” (Pharmaceuticals, 2025)

Key:
DLD-1 = experiment: MTT assay; format: cell-based; conditions: Homo sapiens; DLD-1, 24 h of treatment
Experimental: (§1) The NCI-60 screening protocol utilizes the sulforhodamine B (SRB) assay following 48 h of compound exposure. […] The MTT assay was performed on eleven cancer cell lines: human breast cancer (MDA-MB-231, MCF-7, HCC 1954), human gastric cancer (AGS), human colorectal adenocarcinoma (HT-29, DLD-1, HCT 116), human neuroblastoma (SH SY5Y), and human leukemia (JURKAT, RMPI 8866, K-562) cell lines. The study was conducted in triplicate at the following seven concentrations: 0.62, 1.25, 2.5, 5, 10, 20, and 40 μM.
(§2) The selected cell lines were seeded into 96-well plates and cultured in accordance with the previously described methodology. Then, the cells were treated with all tested compounds and DOX at concentrations of 0.625, 1.25, 2.5, 5.0, 10.0, 20.0, and 40.0 μM for 24 h. A solution of 3-(4,5-dimethyl-2-thiazolyl)-2,5-diphenyl-2H-tetrazolium bromide (Sigma-Aldrich, St. Louis, MO, USA) in phosphate-buffered saline without calcium and magnesium (Corning, Kennebunk, ME, USA) at a concentration of 5 mg/mL was used to carry out MTT assay. After incubation, 20 μL of the prepared MTT solution was added, and then the cells were incubated at 37 °C for two hours. Afterwards, the cells were lysed using 100 μL of lysing buffer (comprising 25 mM HCl, 2% acetic acid, 3% DMF, and 5% SDS, with a pH of 4.7). The absorbance was determined at a wavelength of 570 nm using an Absorbance 96 microplate reader (Byonoy GmbH, Hamburg, Germany).

HCT-116 = experiment: MTT assay; format: cell-based; conditions: Homo sapiens; HCT-116, 24 h of treatment
Experimental: as §1, §2

HT-29 = experiment: MTT assay; format: cell-based; conditions: Homo sapiens; HT-29, 24 h of treatment
Experimental: as §1, §2

Jurkat = experiment: MTT assay; format: cell-based; conditions: Homo sapiens, 24 h of treatment
Experimental: as §1, §2

MCF-7 = experiment: MTT assay; format: cell-based; conditions: Homo sapiens, MCF7; MCF-7, 24 h of treatment
Experimental: as §1, §2

MDA-MB-231 = experiment: MTT assay; format: cell-based; conditions: Homo sapiens; MDA-MB-231, 24 h of treatment
Experimental: as §1, §2

RPMI 8866 = experiment: MTT assay; format: cell-based; conditions: Homo sapiens; RPMI 8866, 24 h of treatment
Experimental: as §1, §2

SH SY5Y = experiment: MTT assay; format: cell-based; conditions: Homo sapiens, 24 h of treatment
Experimental: as §1, §2

SK-MEL-28 = conditions: for TGI: SK-MEL-28, 48 h
UO-31 = conditions: UO-31, 48 h
PC-3 = conditions: PC-3, 48 h
CNS cancer = CNS cancer subpanel
[1] = tested on: panel of 60 cancer cell lines; conditions: for MG_MID TGI: full panel (last line of Table S2)
MOLT-4 = experiment: cells; conditions: Homo sapiens, MOLT-4, 48 h; for CC50: read-out: LC50, MOLT-4, 48 h
NCI-H23 = experiment: cells; conditions: Homo sapiens, NCI-H23, 48 h; for CC50: read-out: LC50, NCI-H23, 48 h
HT29 = experiment: cells; conditions: Homo sapiens, HT-29, 48 h; for GI50: HT29, 48 h; for CC50: read-out: LC50, HT29, 48 h
SK-OV-3 = experiment: cells; conditions: Homo sapiens, SK-OV-3, 48 h; for CC50: read-out: LC50, SK-OV-3, 48 h
A498 = experiment: cells; conditions: Homo sapiens, A498, 48 h
CAKI-1 = experiment: cells; conditions: Homo sapiens, CAKI-1, 48 h
SN12C = experiment: cells; conditions: Homo sapiens, 48 h; for CC50: read-out: LC50, SN12C, 48 h
TK-10 = experiment: cells; conditions: Homo sapiens, TK-10, 48 h; for CC50: read-out: LC50, TK-10, 48 h
DU-145 = experiment: cells; conditions: Homo sapiens, DU-145, 48 h; for CC50: read-out: LC50, DU-145, 48 h
T-47D = experiment: cells; conditions: Homo sapiens, T47D, 48 h; for GI50: T-47D; for CC50: read-out: LC50
Prostate Cancer = experiment: cells; conditions: Homo sapiens, read-out: MG_MID GI50
[2] = tested on: panel of 60 cancer cell lines; experiment: cells; conditions: Homo sapiens, read-out: MG_MID GI50
A549/ATCC = experiment: NCI-60 SRB screen; conditions: for TGI: 48 h; for GI50: Homo sapiens, A549, 48 h
EKVX = experiment: NCI-60 SRB screen; conditions: 48 h; for GI50 / CC50: Homo sapiens; for CC50: read-out: LC50, EKVX, 48 h
HOP-62 = experiment: NCI-60 SRB screen; conditions: HOP-62, 48 h; for GI50: Homo sapiens
NCI-H266 = experiment: NCI-60 SRB screen; conditions: for GI50 / CC50: Homo sapiens, 48 h; for GI50 / TGI: NCI-H266, 48 h; for CC50: read-out: LC50, NCI-H266, 48 h
KM12 = experiment: NCI-60 SRB screen; conditions: KM12, 48 h; for GI50: Homo sapiens
MCF7 = experiment: NCI-60 SRB screen; conditions: MCF7, 48 h; for GI50: Homo sapiens

O=C(O)C(c1ccccc1)N1C(=O)/C(=C/C=C/c2ccc([N+](=O)[O-])o2)SC1=S (stereo not shown) [9b, 2-((Z)-5-((E)-3-(5-Nitrofuran-2-yl)allylidene)-4-oxo-2-thioxothiazolidin-3-yl)-2-phenylacetic acid]
IC50 (DLD-1): 12.3 µM | IC50 (HCT-116): 11.7 µM | IC50 (HT-29): 20 µM | IC50 (Jurkat): 2.51 µM | IC50 (MCF-7): 14.1 µM | IC50 (MDA-MB-231): 36.7 µM | IC50 (RPMI 8866): 5.54 µM | IC50 (SH SY5Y): 20.1 µM | TGI (SK-MEL-28): 23.4 µM | TGI (UO-31): 23.4 µM | TGI (PC-3): 29.9 µM | MG_MID TGI (CNS cancer): 21.7 µM | Positive cytostatic effect (ratio of cell lines with GP from 0 to 50 to total number) ([1]; 10 μM, 48 h): 28/55 | Mean growth ([1]; 10 μM, 48 h, one dose): 26.29% | Range of growth ([1]; 10 μM, 48 h, one dose): -88.21 to 175.37% | MG_MID TGI [1]: 24.1 µM | GI50 (MOLT-4): 12.1 µM | CC50 (MOLT-4): > 100 µM | GI50 (NCI-H23): 14400 nM | CC50 (NCI-H23): 66.9 µM | GI50 (HT29): 5020 nM | CC50 (HT29): 94.5 µM | GI50 (SK-OV-3): 15.9 µM | CC50 (SK-OV-3): 56.3 µM | GI50 (A498): 20800 nM | GI50 (CAKI-1): 6270 nM | GI50 (SN12C): 5390 nM | CC50 (SN12C): 45 µM | GI50 (TK-10): 16.1 µM | CC50 (TK-10): 55.9 µM | GI50 (DU-145): 11500 nM | CC50 (DU-145): 48.8 µM | GI50 (T-47D): 11100 nM | CC50 (T-47D): > 100 µM | GI50 (Prostate Cancer): 12500 nM | GI50 [2]: 9030 nM | TGI (A549/ATCC): 47.0 µM | GI50 (A549/ATCC): 16800 nM | TGI (EKVX): 28.1 µM | GI50 (EKVX): 14300 nM | CC50 (EKVX): 55.1 µM | TGI (HOP-62): 44.5 µM | GI50 (HOP-62): 13100 nM | GI50 (NCI-H266): 12200 nM | CC50 (NCI-H266): 89.7 µM | TGI (NCI-H266): 33.1 µM | GI50 (KM12): 6660 nM | TGI (KM12): 20.6 µM | GI50 (MCF7): 3670 nM | TGI (MCF7): 16.5 µM

CC(C)C(C(=O)O)N1C(=O)/C(=C/C=C/c2ccc([N+](=O)[O-])o2)SC1=S (stereo not shown) [5b, 3-Methyl-2-((Z)-5-((E)-3-(5-nitrofuran-2-yl)allylidene)-4-oxo-2-thioxothiazolidin-3-yl)butanoic acid]
IC50 (DLD-1): 3.86 µM | IC50 (HCT-116): 4.21 µM | IC50 (HT-29): 7.74 µM | IC50 (Jurkat): 3.73 µM | IC50 (MCF-7): 3.32 µM | IC50 (MDA-MB-231): 9.12 µM | IC50 (RPMI 8866): 13.5 µM | IC50 (SH SY5Y): 9.37 µM | growth GP (SK-MEL-28; SK-MEL-28, 10 μM, 48 h): -95.39% | TGI (SK-MEL-28): 2.83 µM | TGI (UO-31): 3.11 µM | TGI (PC-3): 6.52 µM | MG_MID TGI (CNS cancer): 2.79 µM | Positive cytostatic effect (ratio of cell lines with GP from 0 to 50 to total number) ([1]; 10 μM, 48 h): 2/55 | Mean growth ([1]; 10 μM, 48 h, one dose): -73.80% | MG_MID TGI [1]: 3.53 µM | GI50 (MOLT-4): 2.34 µM | CC50 (MOLT-4): > 100 µM | GI50 (NCI-H23): 1750 nM | CC50 (NCI-H23): 6.63 µM | GI50 (HT29): 1370 nM | CC50 (HT29): 6.14 µM | GI50 (SK-OV-3): 2.79 µM | CC50 (SK-OV-3): 33.9 µM | GI50 (A498): 2690 nM | GI50 (CAKI-1): 1170 nM | GI50 (SN12C): 790 nM | CC50 (SN12C): 4.96 µM | GI50 (TK-10): 2.24 µM | CC50 (TK-10): 7.23 µM | GI50 (DU-145): 1430 nM | CC50 (DU-145): 5.56 µM | GI50 (T-47D): 1120 nM | GI50 (Prostate Cancer): 1620 nM | GI50 [2]: 1400 nM | TGI (A549/ATCC): 3.83 µM | GI50 (A549/ATCC): 1860 nM | TGI (EKVX): 4.80 µM | GI50 (EKVX): 2010 nM | CC50 (EKVX): 13.9 µM | TGI (HOP-62): 3.08 µM | GI50 (HOP-62): 1350 nM | GI50 (NCI-H266): 2400 nM | CC50 (NCI-H266): 88.8 µM | TGI (NCI-H266): 7.65 µM | GI50 (KM12): 1170 nM | TGI (KM12): 2.57 µM | GI50 (MCF7): 430 nM | TGI (MCF7): 1.83 µM

CCCC(C(=O)O)N1C(=O)/C(=C/C=C/c2ccc([N+](=O)[O-])o2)SC1=S (stereo not shown) [4b, 2-((Z)-5-((E)-3-(5-Nitrofuran-2-yl)allylidene)-4-oxo-2-thioxothiazolidin-3-yl)pentanoic acid]
IC50 (DLD-1): 7.61 µM | IC50 (HCT-116): 7.89 µM | IC50 (HT-29): 13.2 µM | IC50 (Jurkat): 5.85 µM | IC50 (MCF-7): 5.87 µM | IC50 (MDA-MB-231): 17.5 µM | IC50 (RPMI 8866): 19.6 µM | IC50 (SH SY5Y): 16.3 µM | TGI (SK-MEL-28): 3.51 µM | TGI (UO-31): 3.33 µM | TGI (PC-3): 10.7 µM | MG_MID TGI (CNS cancer): 4.46 µM | Positive cytostatic effect (ratio of cell lines with GP from 0 to 50 to total number) ([1]; 10 μM, 48 h): 4/55 | Mean growth ([1]; 10 μM, 48 h, one dose): 36.52% | MG_MID TGI [1]: 5.85 µM | GI50 (MOLT-4): 3.3 µM | CC50 (MOLT-4): > 100 µM | GI50 (NCI-H23): 1970 nM | CC50 (NCI-H23): 8.57 µM | GI50 (HT29): 1950 nM | CC50 (HT29): 7.45 µM | GI50 (SK-OV-3): 5.8 µM | CC50 (SK-OV-3): 47.2 µM | GI50 (A498): 2240 nM | GI50 (CAKI-1): 1750 nM | GI50 (SN12C): 1760 nM | CC50 (SN12C): 9.32 µM | GI50 (TK-10): 3.27 µM | CC50 (TK-10): 27.6 µM | GI50 (DU-145): 2420 nM | CC50 (DU-145): 22.8 µM | GI50 (T-47D): 2200 nM | CC50 (T-47D): > 100 µM | GI50 (Prostate Cancer): 2650 nM | GI50 [2]: 2170 nM | TGI (A549/ATCC): 5.40 µM | GI50 (A549/ATCC): 2220 nM | TGI (EKVX): 7.77 µM | GI50 (EKVX): 2530 nM | CC50 (EKVX): 27.7 µM | TGI (HOP-62): 5.43 µM | GI50 (HOP-62): 2230 nM | GI50 (NCI-H266): 2620 nM | CC50 (NCI-H266): 78.9 µM | TGI (NCI-H266): 7.83 µM | GI50 (KM12): 1380 nM | TGI (KM12): 2.78 µM | GI50 (MCF7): 1600 nM | TGI (MCF7): 3.70 µM
